This passage reports viability results from the supplement of paper PMC6723410.

SMILES strings stand for the structures.

One assay concerns GUMC-403. Description: viability at highest tested concentration (max response) relative to DMSO (% of DMSO control); higher = less cytotoxic. The settings on record: library / dose series: MIPE library, 11-point 1:3 dilution; top concentration 7.37 µM; 48 h. The essentials: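 Conditionally reprogrammed GUMC-403 papilloma cells from a patient were plated at 700/well in 5 μL F + Y medium in 1536-well plates and left overnight at 37 °C. A pin tool then added 23 nL of library compounds as an 11-point 1:3 series, for 48 h. CellTiter-Glo luminescence was read on a ViewLux and scaled with vehicle wells set to 100% and empty wells to 0%. Each value gives viability at the highest tested concentration relative to vehicle control.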
Compound `COc1ccc(CC2c3cc(OC)c(OC)cc3CC[N+]2(C)CCC(=O)OCCCCCOC(=O)CC[N+]2(C)CCc3cc(OC)c(OC)cc3C2Cc2ccc(OC)c(OC)c2)cc1OC` (centres undefined) had a viability of 84.

Staying with this assay, now noted: library / dose series: MIPE library, 11-point 1:3 dilution; top concentration 13.4 µM; 48 h.
For `CN[C@H]1[C@H](O[C@@H]2[C@H](O[C@@H]3[C@@H](O)[C@@H](O)[C@@H](NC(=N)N)[C@@H](O)[C@H]3NC(=N)N)O[C@H](C)[C@@]2(O)C=O)O[C@@H](CO)[C@@H](O)[C@H]1O`, the viability is 114.

The assay is the same for the next values; noted with them: library / dose series: MIPE library, 11-point 1:3 dilution; top concentration 23 µM; 48 h.
`CC[C@@]1([C@@H]2O[C@@H]([C@H]3O[C@@](O)(CO)[C@H](C)C[C@@H]3C)C[C@@H]2C)CC[C@H]([C@]2(C)CC[C@]3(C[C@H](O)[C@@H](C)[C@@H]([C@@H](C)[C@@H](OC)[C@H](C)C(=O)[O-])O3)O2)O1` came in with a viability of 116.

Staying with this assay, now noted: library / dose series: MIPE library, 11-point 1:3 dilution; top concentration 46.1 µM; 48 h.
The compound `Cc1c(OCC(F)(F)F)ccnc1C[S+]([O-])c1nc2ccccc2[nH]1` (centres undefined) came in with a viability of 82.7. The same measure, in the same setting: the value for `CC(=O)O[C@H]1C[C@@H]2CC[C@@H]3[C@H](CC[C@@]4(C)[C@H]3C[C@H]([N+]3(C)CCCCC3)[C@@H]4OC(C)=O)[C@@]2(C)C[C@@H]1[N+]1(C)CCCCC1` was 122. Compound `CC(C)(C)c1nc(-c2cccc(N[S+](=O)([O-])c3c(F)cccc3F)c2F)c(-c2ccnc(N)n2)s1` came in with a viability of 109.

For the compound `CN(C)c1nc(Cc2ccc(NC(=O)c3ccc4ccccc4c3)cc2)nc(Cl)c1CC(=O)O`, the viability was 114. In the case of `C=C1/C(=C/C=C2\CCCC3(C)[C@@H]([C@H](C)/C=C/C=C/C(O)(CC)CC)CC[C@@H]23)C[C@@H](O)C[C@@H]1O` (some centres undefined), the viability is 148. Compound `CC(C)N(CCCNC(=O)Nc1ccc(C(C)(C)C)cc1)C[C@H]1O[C@@H](n2cc(Br)c3c(N)ncnc32)[C@H](O)[C@@H]1O` showed a viability of 89.1. Take `CC(C)c1ccc(Cn2ccc3c4c(N)nc(NC5CC5)nc4ccc32)cc1`: the viability is 106.

As for `C=C1C(=O)OC2/C=C(/C)CC/C=C(/C)CCC12` (centres undefined), the viability is 113.

Compound `CN1C(=O)C(Cc2c[nH]c3ccccc23)NC1=S` (centres undefined) displayed a viability of 102.

For `C[C@]\1(CCS\C(=N1)N)C2=CC(=C(F)C=C2F)C3=CN=CN=C3`, the viability is 80.2.

On to `O=C(/C=C/c1cccnc1)NCCCCC1CCN(C(=O)c2ccccc2)CC1`, for which the viability is 128.

`CCc1nc(N)nc(N)c1-c1ccc(Cl)cc1` came in with a viability of 97.1.

On to `CCc1cncnc1N1CCN(Cc2nc3cc(C(F)(F)F)ccc3[nH]2)CC1`, for which the viability was found to be 84.5. On the same count and under the same terms, to `O=C1NC(O)CCN1[C@@H]1O[C@H](CO)[C@@H](O)[C@H]1O` (some centres undefined) belongs 124; to `O=C1N\C=N/C2=C1C=N[NH]2`, 106; to `Cc1nc2c([nH]1)-c1ccccc1N(C(=O)c1ccc(NC(=O)c3ccccc3-c3ccccc3)cc1)CC2`, 126.

Take `CCOC(=O)[C@@H](N)Cc1ccc(-c2cc(O[C@H](c3ccc(Cl)cc3-n3ccc(C)n3)C(F)(F)F)nc(N)n2)cc1.O=C(O)CNC(=O)c1ccccc1`: the viability was 117. `CCC\C1=C\C(=O)NC(=S)N1` displayed a viability of 110. The compound `CCOC(CN1C(=O)[C@](CC(=O)Nc2ccc(C)cc2)(NC(=O)Nc2ccc(C)cc2)c2ccccc21)OCC` returned a viability of 129.

Regarding `NC(=O)c1ccc(I)c([N+](=O)[O-])c1`, the viability was found to be 122. As to `O=C(Nc1ccccc1-c1cn2c(CN3CCNCC3)csc2n1)c1cnc2ccccc2n1`, the viability came out at 81.3. The compound `CC[C@@]1(O)C[C@H](O[C@H]2C[C@H](N(C)C)[C@H](O[C@H]3C[C@H](O)[C@H](O[C@H]4CCC(=O)[C@H](C)O4)[C@H](C)O3)[C@H](C)O2)c2c(cc3c(c2O)C(=O)c2c(O)cccc2C3=O)[C@H]1C(=O)OC` came in with a viability of 83.4.

Compound `COc1c(N2C[C@@H]3CCCN[C@@H]3C2)c(F)cc2c(=O)c(C(=O)O)cn(C3CC3)c12.Cl.O` came in with a viability of 133. The same measure, in the same setting: to `C[C@H]1[C@H](NC(=O)/C(=N/OC(C)(C)C(=O)O)c2csc(N)n2)C(=O)N1[S+](=O)([O-])O` belongs 114; to `COC/1=C/C=C2\C(=C/C1=O)[C@H](CCC3=CC(=C(OC)C(=C23)OC)OC)NC(C)=O`, 90.8; to `OC1=CC=C(C=C1)\C2=C\C(=O)C3=C(O2)C=C(O)C=C3O`, 138.

For the compound `C[S+](=O)([O-])c1ccc([C@@H](O)[C@@H](CO)NC(=O)C(Cl)Cl)cc1`, the viability was determined as 126. Regarding `C[C@@H]1C[C@H]2[C@@H]3\C=C(C)/C4=C/C5=C(C[C@]4(C)[C@H]3[C@@H](O)C[C@]2(C)[C@@]1(O)C(=O)COC(C)=O)C=N[N]5C6=CC=CC=C6`, the viability was 107. Same read-out and setting: to `CCCc1cc(C(N)=S)ccn1` belongs 112. Same read-out and setting: to `COC[C@H]1OC(=O)C2=COC3=C2[C@@]1(C)\C4=C(C5CCC(=O)[C@@]5(C)C[C@H]4OC(C)=O)/C3=O` (some centres undefined) belongs 88.9; to `OC[C@H]1O[C@@H](OCCc2ccc(O)cc2)[C@H](O)[C@@H](O)[C@@H]1O`, 107; to `C[C@H](NC(=O)Cc1cc(F)cc(F)c1)C(=O)N[C@H](C(=O)OC(C)(C)C)c1ccccc1`, 79.4. The same measure, in the same setting: to `O=C(O)CCCCCC(=O)NN=C1CCCC1` belongs 108. Compound `COC(=O)C\1=C(C)\N\C(=C(/C1C2=CC=CC3=NON=C23)C(=O)OC(C)C)C` (centres undefined) displayed a viability of 89.7. In the case of `CC(C)[C@@H](N(CCCN)C(=O)C1=CC=C(C)C=C1)C/2=N/C3=CC(=CC=C3C(=O)N2CC4=CC=CC=C4)Cl`, the viability came out at 121. On to `CN1CCN(C(=O)O[C@H]2c3nccnc3C(=O)N2c2ccc(Cl)cn2)CC1`, for which the viability was found to be 117. In turn, `CCCCCCCCc1ccc(CCC(N)(CO)CO)cc1` had a viability of 90.9. In the case of `CC(C)c1ccccc1Cc1cc(C(=O)Nc2ccc([S+](=O)([O-])c3ccccc3C(C)(C)C)cc2)c(O)c(O)c1O`, the viability is 56.4. `c1ccc2c(Cc3c[nH]c4ccccc34)c[nH]c2c1` returned a viability of 75.9. The compound `NC(=O)NO` showed a viability of 51.9. As to `Cc1cc(Nc2cc(N3CCN(C)CC3)nc(Sc3ccc(NC(=O)C4CC4)cc3)n2)[nH]n1`, the viability stood at 86.3.

For `Cl.Nc1ccn([C@@H]2O[C@H](CO)[C@@H](O)C2(F)F)c(=O)n1`, the viability was 107.

Regarding `CCN1C[C@]2(OC(=O)c3ccccc3NC(C)=O)CC[C@H](OC)[C@@]34[C@@H]2C[C@@H]([C@@H]13)[C@@]1(O)C[C@H](OC)[C@H]2C[C@@H]4[C@]1(O)[C@H]2OC`, the viability was 139. `CC(C)(F)C[C@H](N[C@@H](c1ccc(-c2ccc([S+](C)(=O)[O-])cc2)cc1)C(F)(F)F)C(=O)NC1(C#N)CC1` showed a viability of 110. With `CC[C@H]1OC(=O)[C@H](C)[C@@H](O[C@H]2C[C@@](C)(OC)[C@@H](O)[C@H](C)O2)[C@H](C)[C@@H](O[C@@H]2O[C@H](C)C[C@H](N(C)C)[C@H]2O)[C@](C)(OC)C[C@@H](C)C(=O)[C@H](C)[C@@H](O)[C@]1(C)O`, the viability worked out at 112. Still for that read-out and setting: the value for `COc1ncnc(N[S+](=O)([O-])c2ccc(N)cc2)c1OC` was 137; that for `CCNc1cc(NC2CCC(O)CC2)nc(Nc2ccc3c(ccn3Cc3ccccc3)c2)n1` (centres undefined) was 99.8; that for `Cc1cc(NC(=O)Nc2ccc(N(C)C)cc2)c2cc(F)cc(F)c2n1` was 124. As for `CCCNC(=O)Nc1ccc(Oc2ncnc3cc(OC)c(OC)cc23)cc1Cl`, the viability was determined as 92.2. Compound `CCCCC(=O)O[C@]1(C(=O)CO)[C@H](C)C[C@H]2[C@@H]3CCC4=CC(=O)C=C[C@]4(C)[C@@]3(F)[C@@H](O)C[C@@]21C` displayed a viability of 121. `OC[C@H]1O[C@H](C[C@@H]1O)[N]2C=NC3=C2\N=C/NC[C@H]3O` registered a viability of 83.1. For `CC(C)=CC[C@@H](O)C/1=C/C(=O)C2=C(O)C=CC(=C2C1=O)O`, the viability came out at 78.5. In turn, `C[C@H]1CN(C[C@@H](C)O1)CC(=O)NC2=CC=C3SC4=C(CC3=C2)C=CC=C4\C5=C\C(=O)\C=C(/O5)N6CCOCC6` showed a viability of 115. In turn, `O=C(O)c1nn(Cc2ccc(Cl)cc2Cl)c2ccccc12` returned a viability of 99.7. Compound `C\C1=N\N=C(\C2=CC=C(N)C=C2)C3=CC4=C(OCO4)C=C3C1` came in with a viability of 132. In the case of `Cc1cccc(-c2n[nH]cc2-c2ccc3ncccc3n2)n1`, the viability was 126. In turn, `CC(C)OC(=O)C(C)(C)Oc1ccc(C(=O)c2ccc(Cl)cc2)cc1` came in with a viability of 117. Still for that read-out and setting: the value for `O=C1[C@H](Cc2ccc(O)cc2)N2C(=O)CCN(C(=O)NCc3ccccc3)[C@H]2CN1Cc1cccc2ccccc12` was 78.2; that for `COc1ccc2cc(-c3[nH]c(-c4ccc([S+](C)[O-])cc4)nc3-c3ccncc3)ccc2c1` (centres undefined) was 144; that for `OC[C@H]1O[C@H](C[C@@H]1O)N2\C=C(\I)C(=O)NC2=O` was 127. The compound `COc1cc(OC)c(NC(=O)Nc2cc(C)on2)cc1Cl` came in with a viability of 131. The same measure, in the same setting: to `Clc1ccc2ncc(-c3cccc(NC4CNC4)n3)n2c1` belongs 124; to `O=C(c1cncc(Br)c1)N1CCC(N2CCCC2)CC1`, 115. `C[C@@H](NCCCc1cccc(C(F)(F)F)c1)c1cccc2ccccc12` registered a viability of 99.7. Regarding `COc1ccccc1N1CCN(CC(O)COc2cccc3ccccc23)CC1` (centres undefined), the viability was determined as 99.1. On the same count and under the same terms, to `CC(C)NCC(O)c1ccc(O)c(O)c1` (centres undefined) belongs 127.
